Measurements from patent US7498406B2, “Substantially cell membrane impermeable compound and use thereof” (priority 1999, dated 2009).
pIC50: −log10 of the molar value. Entries after “also recorded” stand apart in the source; their conditions may differ.

Key:
HT1080 = experiment: Viability of cultured cells, 72 hr; assay type: cell-based, human; conditions: 5% FCS, 0 to 1 mM
Method: (§1) FIG. 19. Effect of GSAO on proliferation of non-endothelial cells. 15,000 BxPC-3 (part A), HT1080 (part B), 3T3 (part C) or BVSM (part D) cells per well were seeded into gelatinised 24-well culture plates and allowed to attach for 24 hr. The media was then replaced with DMEM containing 0 to 1 mM GSAO or GSAA and either 5% BCS (part D) or 5% FCS (parts A, B and C). Cells were cultured for 72 hr and then dispersed and counted. The dotted lines indicate the cell number in control wells containing DMEM and 2% BCS (part D) or 2% FCS (parts A, B and C) which represented no to limited proliferation. The data points and errors represent the mean and range of duplicate wells.
(§2) BCE (Folkman et al. 1979), BAE, BxPC-3 (ATCC, Bethesda, Md.), HT1080 (Jiang et al., 1999), 3T3 (ATCC, Bethesda, Md.) and BVSM (Hogg et al., 1997) cells were harvested and cultured as indicated. […] Cells were cultured for 0 to 72 hr in 10% CO2 at 37° C. then dispersed in trypsin/EDTA (GibcoBRL, Granc Island, N.Y.), resuspended in Coulter balanced electrolyte solution and counted with a Z1 Coulter counter (Coulter Corp., Miami, Fla.) in all experiments there were two control wells containing DMEM with 1% GPS and either 5% BCS for BCE cells, 2% BCS for BAE and BVSM cells, or 2% FCS for BxPC-3, HT1080 and 3T3 cells. […]

BxPc3 = experiment: Viability of cultured cells, 72 hr; assay type: cell-based, human; conditions: 5% FCS, 0 to 1 mM
Method: as §1, §2

BxPC-3 tumours = experiment: Histological analysis of BxPC-3 tumours (CD-31, PCNA, TUNEL); assay type: in vivo, SCID mice; conditions: for necrosis of treated tumours: not shown
Method: FIG. 26. Inhibition of angiogenesis in human pancreatic tumours by GSAO. Histological sections of the BxPC-3 tumours shown in part C of FIG. 23 from GSAA and GSAO-treated mice were analysed for angiogenesis (CD-31), proliferation (PCNA) and apoptosis (TUNEL).
The tumours shown in FIG. 23C were fixed in Buffered Formalde-Fresh (Fisher Scientific, Fair Lawn, N.J.), embedded in paraffin and […] sections were cut and placed on glass slides. Sections were stained with haematoxylin and eosin or for CD31, PCNA or fragmented DNA (TUNEL). Sections were incubated overnight at 4° C. with a […] of anti-mouse CD-31 antibody (PharMingen, San Diego, Calif.) followed by a 1:200 dilution of biotinylated anti-rat secondary antibody (Vestor, Burlingame, Calif.). The staining was enhanced by tyramide amplification (New England Nuclear, Boston, Mass.). Staining for PCNA was performed as described by Holmgren et al. (1995) while TUNEL labeling of fragmented DNA was performed according to Gavrielli et al. (1992).
Vascular density was determined by selecting 3 tumours, including the smallest and largest, from the control and treatment groups. […] The highest of the three counts was the value taken and two sections from each tumour was examined. The proliferative index was estimated by the percentage of cells scored under 400× magnification (Holmgren et al., 1995). A minimum of 1000 cells was counted in two separate sections. The apoptotic index was estimated by the percentage of cells scored under 400× magnification. A minimum of 1500 cells was counted in two separate sections (Holmgren et al., 1995).

Human bone marrow cells = experiment: 12 day human bone marrow culture assay, granulocyte/macrophage colonies; assay type: cell-based; conditions: 12 days, 0 to 100 μM
Method: FIG. 20. Effect of GSAO on proliferation of bone marrow progenitor cells. Human bone marrow cells were incubated in semi-solid agar containing 20% BGS, 1 ng per mL IL-3 and 0 to 100 μM GSAA or GSAO for 12 days. Granulocyte/macrophage colonies of 40 or more cells were counted under an inverted microscope. The data points and errors represent the mean and SE of quadruplicate cultures.
GSAO reduced the number of granulocyte/macrophage colonies in a 12 day human bone marrow culture assay with an IC50 of ˜30 μM (FIG. 20). […] Human bone marrow cells (˜5×10^5 cells per mL) were added to semi-solid agar in DMEM containing 20% BCS, […] IL-3 and 0 to 100 μM GSAA or GSAO. The cultures were incubated for 12 days at 37° C. and 5% CO2 and clusters of 40 or more cells were counted under an inverted microscope according to Metcalf (1977).

BCE [1] = experiment: Proliferation of cultured cells, 72 hr; assay type: cell-based, bovine; conditions: for pIC50: 72 hr
Method: (§3) FIG. 18. Inhibition of proliferation and reduction in viability of BCE cells by GSAO. 15,000 (part A and B) or 50,000 (part C and D) BCE cells per well were seeded into gelatinised 24-well culture plates and allowed to attach for 24 hr (part A, B and D) or 72 hr (part C). The media was then replaced with DMEM containing 5% BCS and 0 to 1 mM GSAO or GSAA and either 1 ng per mL FGF-2 (part A) or 10 ng per mL VEGF (part B). In part D, the media was replaced with DMEM containing 5% BCS and 1 ng per mL FGF-2 and either 10 μM GSAO or GSAA. In part C, the media was replaced with DMEM containing 5% BCS and 0 to 1 mM GSAO or GSAA. Cells were cultured for 72 hr in parts A, B and C or for discrete times up to 48 hr in part D and then dispersed and counted. The dotted line in parts A, B and C indicate the cell number in control wells containing DMEM and 5% BCS which represented no to limited proliferation. The dotted line in part D represents no change in cell number over the 48 hr. The data points and errors represent the mean and range of duplicate wells.
as §2, with “indicated. Cells (0.5 mL of 30,000 or 100,000 cells per mL) were seeded into gelatinized 24-well culture plates (Corning Costar, Corning, N.Y.) in Dulbecco's Modified Eagle's Medium (DMEM, JHR Bioscience, Lenexa, Kans.) containing 10% fetal calf serum (FCS, Intergen Comp., Purchase, N.Y.) and 1% Glutamine Pen-Strep (GPS, Irvine Scientific, Santa Ana, Va.) and allowed to attach for 24 hr in 10% CO2 at 37° C.” for “indicated.”

BCE [2] = experiment: Viability of cultured cells, 72 hr; assay type: cell-based, bovine
Method: as §3
as §2, with “indicated. Cells (0.5 mL of 30,000 or 100,000 cells per mL) were seeded into gelatinized 24-well culture plates (Corning Costar, Corning, N.Y.) in Dulbecco's Modified Eagle's Medium (DMEM, JHR Bioscience, Lenexa, Kans.) containing 10% fetal calf serum (FCS, Intergen Comp., Purchase, N.Y.) and 1% Glutamine Pen-Strep (GPS, Irvine Scientific, Santa Ana, Va.) and allowed to attach for 24 hr in 10% CO2 at 37° C.” for “indicated.”

**Q.** What does the source list for N[C@@H](CCC(=O)N[C@@H](CSCC(=O)Nc1ccc([As](=O)(O)O)cc1)C(=O)NCC(=O)O)C(=O)O [GSAA, 4-(N-(S-glutathionylacetyl)amino)phenylarsonic acid, reference compound]?
**A.** Viability IC50 (HT1080): no significant effect; Viability IC50 (BxPc3): no significant effect; necrosis of treated tumours (BxPC-3 tumours): no macroscopic or microscopic signs of necrosis; IC50 for reduction of the number of granulocyte/macrophage colonies (Human bone marrow cells): no effect on colony numbers; effect on proliferation of BCE cells (BCE [1]; highest concentration used, 1 mM): only a marginal effect on proliferation; effect on viability of BCE cells (BCE [2]; 0 to 1 mM): no significant effect on viability

**Q.** Which “proliferative index of tumour cells (PCNA)” value (BxPC-3 tumours; GSAO- vs GSAA-treated) does the source give for NC(CCC(=O)NC(CSCC(=O)Nc1ccc([As]=O)cc1)C(=O)NCC(=O)O)C(=O)O (centres unmarked) [GSAO, 4-(N-(S-glutathionylacetyl)amino)-phenylarsenoxide] here?
**A.** The value was “no significant difference”.

**Q.** And the “tumour angiogenesis (CD-31)” value (BxPC-3 tumours; GSAO- vs GSAA-treated, 10 mg per kg per day, day 31, p<0.001)?
**A.** Its value is “marked suppression of angiogenesis; also recorded: marked reduction in angiogenesis”.

**Q.** And the “apoptotic index of tumour cells (TUNEL)” value (BxPC-3 tumours; GSAO- vs GSAA-treated, p=0.05)?
**A.** The value was “increase in the apoptotic index”.

**Q.** What about the “necrosis of treated tumours” value (BxPC-3 tumours) of the same molecule?
**A.** The value was “no macroscopic or microscopic signs of necrosis”.

**Q.** What about the pIC50 (BCE [1]; 5% BCS + 1 ng/mL FGF-2) of the same molecule?
**A.** Its pIC50 is about 7.00.

**Q.** What about the pIC50 (BCE [1]; 5% BCS + 10 ng/mL VEGF) of the same molecule?
**A.** Its pIC50 is about 7.30.

**Q.** What about the “time dependence of the decrease in viability” value (BCE [2]; 10 μM, 1 ng per mL FGF-2, up to 48 hr) of the same molecule?
**A.** The value was “no decrease in viability after 8 hours”.

**Q.** What about the pIC50 (BCE [2]; 5% BCS + 10 ng/mL VEGF, >90% confluent, 72 hr) of the same molecule?
**A.** Its pIC50 is about 5.52.
